Data published in patent publication US20170266089A1, “USE OF LIPOPHILIC SALICYLIC ACID DERIVATIVES” (L'OREAL, priority 2014, published 2017).

Assays:
[1] = system: Transglutaminase 3 (TGM3) transcripts; experiment: Expression of TGM3 transcripts in keratinocytes (RT-qPCR); format: cell-based; conditions: human epidermic keratinocytes, 24 hours, compound at 15 μm; for TGM3 transcript expression, fold change (fc) compared to control: normalized to RPL13A and GAPDH, N=3
Method: (§1) The influence of the compounds (A′) and (F), in particular obtained according to the process indicated above, on the renewal of the epidermis and on the barrier effect of the skin was evaluated in vitro by measuring the expression of TGM1 and TGM3 transcripts in keratinocytes.
(§2) Human epidermic keratinocytes were incubated for 24 hours in the presence or not (control) of compound (A′) or (F). At the end of the incubation, total RNAs were extracted and quantified. The expression of TGM1 and TGM3 transcripts was then measured using a two-step RT-qPCR method with a LightCycler® device according to the technique of incorporation of SYBR®Green (Qiagen). The expression of these transcripts was normalized with the expression of two housekeeping genes, RPL13A and GAPDH. The experiments were reproduced 3 times (N=3).
(§3) The results are given in Table (VI) below, fold change (fc) compared to control.

[2] = system: Transglutaminase 1 (TGM1) transcripts; experiment: Expression of TGM1 transcripts in keratinocytes (RT-qPCR); format: cell-based; conditions: human epidermic keratinocytes, 24 hours, compound at 15 μm; for TGM1 transcript expression, fold change (fc) compared to control: normalized to RPL13A and GAPDH, N=3
Method: as §1, §2, §3

laminin-5 = experiment: Ex vivo immunolabelling of laminin-5 in skin explants; set-up: species or system human; conditions: topical 2 mg per explant, compound (F) 5% in water, LHA 5% in ethanol, symbols proportional
Method: (§4) The anti-ageing effect of the compound (F), in particular obtained according to the process indicated above, at 5% in water, was evaluated ex vivo by immunolabelling of the proteins collagen III, membrane transglutaminase (MTG), filaggrin and laminin-5, in comparison with LHA (lipohydroxy acid, 2-hydroxy-5-octanoylbenzoic acid) at 5% in ethanol.
(§5) 111 explants with a diameter of approximately 10 mm were prepared from abdominal plastic surgery on a person. These explants were kept alive.
(§6) On day […], the explants were placed on a grid in 2 ml of culture medium. […]
(§7) At D0, D6 and D11, the explants were sampled from the culture medium and cut in two. […] The labellings were evaluated by a microscopic examination. […]
(§8) The microscopic observations were carried out in optical microscopy and fluorescence microscopy, using a Leica microscope of Orthoplan or DMLB type. […]
Immunolabelling of Laminin-5 The labelling of laminin-5 was carried out on frozen sections with a monoclonal antibody, clone P3E4 (Santa Cruz sc-13587), at 1/300th, for 30 minutes at ambient temperature with a biotin/streptavidin amplifying system, visualized in FITC (Caltag sa1001). […] The labelling was evaluated by a microscopic examination. […]
The results obtained with the compound (F) and LHA are assessed, at equivalent date, by comparison with the results obtained in the absence of treatment (control test). […]

[3] = system: membrane transglutaminase (MTG); experiment: Ex vivo immunolabelling of membrane transglutaminase (MTG) in skin explants; set-up: species or system human; conditions: topical 2 mg per explant, compound (F) 5% in water, LHA 5% in ethanol, symbols proportional
Method: as §4, §5, §6, §7, §8
Membrane transglutaminase was labelled on frozen sections with a monoclonal antibody, clone B.C1 (Harbor Bio Product ref. 5003), at 1/100th, for 2 h at ambient temperature with a Vectastain RTU Universal, Vector, avidin/biotin amplifying system and visualized in FITC. […] The labelling was evaluated by a microscopic examination. […]
The results obtained with the compound (F) and […] are assessed, at equivalent date, by comparison with the results obtained in the absence of treatment (control test). […]

SMILES	Stimulation of the expression of TGM3 transcripts (class in words) [1]	TGM3 transcript expression, fold change (fc) compared to control [1]	Stimulation of the expression of TGM1 transcripts (class in words) [2]	TGM1 transcript expression, fold change (fc) compared to control [2]	Laminin-5 expression level, difference in comparison with the control at D11 (laminin-5)	MTG expression level, difference in comparison with the control at D6 [3]
CCCCCCCCCCCCCCCc1cccc(O)c1C(=O)O [Compound (F)]	good stimulation	3.0 fc	average stimulation	1.7 fc	No variation	No variation
CCCCCCCC(=O)c1ccc(O)c(C(=O)O)c1 [LHA, 2-hydroxy-5-octanoylbenzoic acid, reference compound]	–	–	–	–	No variation	–
CCCCCCCCCCCCCCCc1cccc(O)c1C(=O)O [Compound (A′), 6-peritadecylsalicylic acid]	strong stimulation	20 fc	strong stimulation	6.0 fc	–	–
